Data as given in PMC9817970 (Cancers, 2022).

How the values were obtained:
Test in all cases: Kinase panel profiling
Type in all cases: biochemical
Details in all cases: 10 μM ATP
FGFR3 = biological target: T1, FGFR3 (Homo sapiens, UniProt P22607)
T1 construct: purchased Reaction Biology Corp
Description: (§1) Kinase panel profiling was conducted by Reaction Biology Corp. (San Diego, CA, USA). A single dose (1.0 μM) of 6r was tested against 371 recombinant human kinases in the presence of 10 μM ATP.

SIK1 = biological target: T2, SIK1 (Homo sapiens, UniProt P57059)
T2 construct: purchased Reaction Biology Corp
Description: as §1

MARK3 = biological target: T3, MARK3 (Homo sapiens, UniProt P27448)
T3 construct: purchased Reaction Biology Corp
Description: as §1

CDK14/cyclin Y (PFTK1) = biological target: T4, CDK14/cyclin Y (PFTK1) (Homo sapiens, UniProt O94921)
T4 construct: purchased Reaction Biology Corp
Description: as §1

KDR/VEGFR2 = biological target: T5, KDR/VEGFR2 (Homo sapiens, UniProt P35968)
T5 construct: purchased Reaction Biology Corp
Description: as §1

NEK2 = biological target: T6, NEK2 (Homo sapiens, UniProt P51955)
T6 construct: purchased Reaction Biology Corp
Description: as §1

PKCb2 = biological target: T7, PKCb2 (Homo sapiens, UniProt P05771)
T7 construct: purchased Reaction Biology Corp
Description: as §1

AXL = biological target: T8, AXL (Homo sapiens, UniProt P30530)
T8 construct: purchased Reaction Biology Corp
Description: as §1

SGK3/SGKL = biological target: T9, SGK3/SGKL (Homo sapiens, UniProt Q96BR1)
T9 construct: purchased Reaction Biology Corp
Description: as §1

GSK3b = biological target: T10, GSK3b (Homo sapiens, UniProt P49841)
T10 construct: purchased Reaction Biology Corp
T10 sequence (P49841 whole entry): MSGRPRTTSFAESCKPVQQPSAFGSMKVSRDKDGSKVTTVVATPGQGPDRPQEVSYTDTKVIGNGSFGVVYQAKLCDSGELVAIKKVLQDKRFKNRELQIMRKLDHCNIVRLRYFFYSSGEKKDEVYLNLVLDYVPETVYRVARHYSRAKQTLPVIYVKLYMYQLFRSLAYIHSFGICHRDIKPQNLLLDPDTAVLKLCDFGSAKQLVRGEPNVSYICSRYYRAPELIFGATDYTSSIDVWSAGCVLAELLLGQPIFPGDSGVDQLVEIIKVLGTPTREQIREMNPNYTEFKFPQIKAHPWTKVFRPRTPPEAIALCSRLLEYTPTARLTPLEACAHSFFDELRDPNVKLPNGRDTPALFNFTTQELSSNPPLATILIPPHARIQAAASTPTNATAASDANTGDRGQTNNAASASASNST
Description: as §1

DYRK4 = biological target: T11, DYRK4 (Homo sapiens, UniProt Q9NR20)
T11 construct: purchased Reaction Biology Corp
Description: as §1

PIM3 = biological target: T12, PIM3 (Homo sapiens, UniProt Q86V86)
T12 construct: purchased Reaction Biology Corp
Description: as §1

CAMK1g = biological target: T13, CAMK1g (Homo sapiens, UniProt Q96NX5)
T13 construct: purchased Reaction Biology Corp
T13 sequence (Q96NX5 whole entry): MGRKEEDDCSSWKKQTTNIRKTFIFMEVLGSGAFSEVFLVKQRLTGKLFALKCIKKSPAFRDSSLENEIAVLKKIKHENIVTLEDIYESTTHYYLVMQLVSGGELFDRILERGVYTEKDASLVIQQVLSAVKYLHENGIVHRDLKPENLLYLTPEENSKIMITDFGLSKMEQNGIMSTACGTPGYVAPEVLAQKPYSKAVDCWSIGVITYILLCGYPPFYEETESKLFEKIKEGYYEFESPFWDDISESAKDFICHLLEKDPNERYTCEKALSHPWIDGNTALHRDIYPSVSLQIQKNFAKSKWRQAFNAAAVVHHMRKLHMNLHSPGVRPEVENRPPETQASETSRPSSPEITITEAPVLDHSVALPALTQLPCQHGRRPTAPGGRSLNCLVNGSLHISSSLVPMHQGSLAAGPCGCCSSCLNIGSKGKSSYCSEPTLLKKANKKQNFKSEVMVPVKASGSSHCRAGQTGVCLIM
Description: as §1

CDK9/cyclin T2 = biological target: T14, CDK9/cyclin T2 (Homo sapiens, UniProt P50750)
T14 construct: purchased Reaction Biology Corp
Description: as §1

TTBK1 = biological target: T15, TTBK1 (Homo sapiens, UniProt Q5TCY1)
T15 construct: purchased Reaction Biology Corp
Description: as §1

NEK1 = biological target: T16, NEK1 (Homo sapiens, UniProt Q96PY6)
T16 construct: purchased Reaction Biology Corp
Description: as §1

HIPK2 = biological target: T17, HIPK2 (Homo sapiens, UniProt Q9H2X6)
T17 construct: purchased Reaction Biology Corp
Description: as §1

DYRK2 = biological target: T18, DYRK2 (Homo sapiens, UniProt Q92630)
T18 construct: purchased Reaction Biology Corp
T18 sequence (Q92630 whole entry): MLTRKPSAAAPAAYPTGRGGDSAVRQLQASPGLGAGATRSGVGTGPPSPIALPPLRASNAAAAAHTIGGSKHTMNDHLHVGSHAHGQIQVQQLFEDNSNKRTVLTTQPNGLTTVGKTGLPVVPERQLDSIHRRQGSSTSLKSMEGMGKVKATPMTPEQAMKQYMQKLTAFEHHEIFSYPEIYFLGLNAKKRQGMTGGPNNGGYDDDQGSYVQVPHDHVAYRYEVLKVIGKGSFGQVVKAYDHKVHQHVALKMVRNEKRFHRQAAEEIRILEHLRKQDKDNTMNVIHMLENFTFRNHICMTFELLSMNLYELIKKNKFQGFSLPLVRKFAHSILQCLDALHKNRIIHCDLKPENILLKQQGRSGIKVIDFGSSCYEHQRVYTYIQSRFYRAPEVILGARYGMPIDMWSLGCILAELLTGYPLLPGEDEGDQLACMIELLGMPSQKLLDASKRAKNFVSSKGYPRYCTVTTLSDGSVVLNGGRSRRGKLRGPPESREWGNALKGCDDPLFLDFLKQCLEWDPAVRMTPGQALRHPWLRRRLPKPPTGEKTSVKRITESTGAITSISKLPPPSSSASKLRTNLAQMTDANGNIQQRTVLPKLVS
Description: as §1

FES/FPS = biological target: T19, FES/FPS (Homo sapiens, UniProt P07332)
T19 construct: purchased Reaction Biology Corp
T19 sequence (P07332 whole entry): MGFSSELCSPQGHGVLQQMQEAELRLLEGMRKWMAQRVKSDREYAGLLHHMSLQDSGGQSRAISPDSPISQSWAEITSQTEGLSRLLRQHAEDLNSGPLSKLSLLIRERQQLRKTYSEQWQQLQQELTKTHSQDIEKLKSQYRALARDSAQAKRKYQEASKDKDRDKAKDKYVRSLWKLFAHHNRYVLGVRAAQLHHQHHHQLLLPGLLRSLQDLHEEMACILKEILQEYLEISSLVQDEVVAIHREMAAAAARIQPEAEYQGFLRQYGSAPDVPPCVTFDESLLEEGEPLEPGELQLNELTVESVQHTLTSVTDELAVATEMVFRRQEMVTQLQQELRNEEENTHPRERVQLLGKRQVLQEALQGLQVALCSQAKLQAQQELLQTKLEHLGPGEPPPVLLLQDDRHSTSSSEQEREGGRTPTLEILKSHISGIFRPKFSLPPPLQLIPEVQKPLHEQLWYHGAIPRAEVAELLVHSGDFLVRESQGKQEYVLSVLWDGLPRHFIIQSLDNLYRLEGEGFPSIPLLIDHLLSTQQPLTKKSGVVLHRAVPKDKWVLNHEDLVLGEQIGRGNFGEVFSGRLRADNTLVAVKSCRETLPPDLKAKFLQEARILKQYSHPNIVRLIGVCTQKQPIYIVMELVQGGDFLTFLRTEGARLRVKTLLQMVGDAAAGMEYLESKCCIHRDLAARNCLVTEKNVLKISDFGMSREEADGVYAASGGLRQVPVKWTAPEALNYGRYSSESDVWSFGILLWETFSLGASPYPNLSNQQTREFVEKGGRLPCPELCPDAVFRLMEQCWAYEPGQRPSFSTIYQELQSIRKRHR
Description: as §1

CK1a1 = biological target: T20, CK1a1 (Homo sapiens, UniProt P48729)
T20 construct: purchased Reaction Biology Corp
Description: as §1

MARK1 = biological target: T21, MARK1 (Homo sapiens, UniProt Q9P0L2)
T21 construct: purchased Reaction Biology Corp
Description: as §1

BLK = biological target: T22, BLK (Homo sapiens, UniProt P51451)
T22 construct: purchased Reaction Biology Corp
Description: as §1

PKG1a = biological target: T23, PKG1a (Homo sapiens, UniProt Q13976)
T23 construct: purchased Reaction Biology Corp
Description: as §1

MLCK2/MYLK2 = biological target: T24, MLCK2/MYLK2 (Homo sapiens, UniProt Q9H1R3)
T24 construct: purchased Reaction Biology Corp
Description: as §1

RIPK3 = biological target: T25, RIPK3 (Homo sapiens, UniProt Q9Y572)
T25 construct: purchased Reaction Biology Corp
Description: as §1

FLT3 = biological target: T26, FLT3 (Homo sapiens, UniProt P36888)
T26 construct: purchased Reaction Biology Corp
Description: as §1

CLK3 = biological target: T27, CLK3 (Homo sapiens, UniProt P49761)
T27 construct: purchased Reaction Biology Corp
Description: as §1

CDK4/cyclin D1 = biological target: T28, CDK4/cyclin D1 (Homo sapiens, UniProt P11802)
T28 construct: purchased Reaction Biology Corp
Description: as §1

FAK/PTK2 = biological target: T29, FAK/PTK2 (Homo sapiens, UniProt Q05397)
T29 construct: purchased Reaction Biology Corp
T29 sequence (Q05397 whole entry): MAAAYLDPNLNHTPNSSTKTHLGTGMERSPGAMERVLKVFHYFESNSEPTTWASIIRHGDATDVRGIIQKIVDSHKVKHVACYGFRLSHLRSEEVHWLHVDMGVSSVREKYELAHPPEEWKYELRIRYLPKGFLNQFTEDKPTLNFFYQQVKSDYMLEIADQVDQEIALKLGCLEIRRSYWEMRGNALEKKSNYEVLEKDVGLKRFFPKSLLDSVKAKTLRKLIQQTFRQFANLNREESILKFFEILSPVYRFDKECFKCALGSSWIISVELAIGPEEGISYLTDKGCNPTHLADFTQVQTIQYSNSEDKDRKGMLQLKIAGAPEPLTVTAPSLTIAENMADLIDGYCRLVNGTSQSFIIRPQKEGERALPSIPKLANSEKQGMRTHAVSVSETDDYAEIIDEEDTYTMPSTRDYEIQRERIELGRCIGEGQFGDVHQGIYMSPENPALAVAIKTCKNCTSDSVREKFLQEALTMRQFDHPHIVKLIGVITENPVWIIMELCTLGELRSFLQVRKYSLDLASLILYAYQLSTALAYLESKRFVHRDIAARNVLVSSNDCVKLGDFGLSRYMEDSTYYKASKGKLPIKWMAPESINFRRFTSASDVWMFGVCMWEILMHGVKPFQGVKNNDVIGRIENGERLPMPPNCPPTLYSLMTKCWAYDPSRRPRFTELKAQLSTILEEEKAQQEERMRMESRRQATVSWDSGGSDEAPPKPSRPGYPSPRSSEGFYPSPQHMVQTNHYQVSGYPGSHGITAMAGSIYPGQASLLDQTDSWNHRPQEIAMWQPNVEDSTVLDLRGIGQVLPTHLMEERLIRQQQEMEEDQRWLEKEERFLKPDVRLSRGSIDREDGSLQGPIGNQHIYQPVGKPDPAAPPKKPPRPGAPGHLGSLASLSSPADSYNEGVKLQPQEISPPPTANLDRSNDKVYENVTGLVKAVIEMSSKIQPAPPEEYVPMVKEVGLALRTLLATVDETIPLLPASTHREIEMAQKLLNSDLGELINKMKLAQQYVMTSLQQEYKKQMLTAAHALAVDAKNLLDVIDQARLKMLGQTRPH
Description: as §1

NEK5 = biological target: T30, NEK5 (Homo sapiens, UniProt Q6P3R8)
T30 construct: purchased Reaction Biology Corp
Description: as §1

MLK1/MAP3K9 = biological target: T31, MLK1/MAP3K9 (Homo sapiens, UniProt P80192)
T31 construct: purchased Reaction Biology Corp
Description: as §1

LYN = biological target: T32, LYN (Homo sapiens, UniProt P07948)
T32 construct: purchased Reaction Biology Corp
Description: as §1

MKK6 = biological target: T33, MKK6 (Homo sapiens, UniProt P52564)
T33 construct: purchased Reaction Biology Corp
Description: as §1

RIPK2 = biological target: T34, RIPK2 (Homo sapiens, UniProt O43353)
T34 construct: purchased Reaction Biology Corp
Description: as §1

CDK6/cyclin D1 = biological target: T35, CDK6/cyclin D1 (Homo sapiens, UniProt Q00534)
T35 construct: purchased Reaction Biology Corp
Description: as §1

SGK1 = biological target: T36, SGK1 (Homo sapiens, UniProt O00141)
T36 construct: purchased Reaction Biology Corp
Description: as §1

LIMK2 = biological target: T37, LIMK2 (Homo sapiens, UniProt P53671)
T37 construct: purchased Reaction Biology Corp
Description: as §1

STK38L/NDR2 = biological target: T38, STK38L/NDR2 (Homo sapiens, UniProt Q9Y2H1)
T38 construct: purchased Reaction Biology Corp
Description: as §1

EPHA4 = biological target: T39, EPHA4 (Homo sapiens, UniProt P54764)
T39 construct: purchased Reaction Biology Corp
T39 sequence (P54764 20-986): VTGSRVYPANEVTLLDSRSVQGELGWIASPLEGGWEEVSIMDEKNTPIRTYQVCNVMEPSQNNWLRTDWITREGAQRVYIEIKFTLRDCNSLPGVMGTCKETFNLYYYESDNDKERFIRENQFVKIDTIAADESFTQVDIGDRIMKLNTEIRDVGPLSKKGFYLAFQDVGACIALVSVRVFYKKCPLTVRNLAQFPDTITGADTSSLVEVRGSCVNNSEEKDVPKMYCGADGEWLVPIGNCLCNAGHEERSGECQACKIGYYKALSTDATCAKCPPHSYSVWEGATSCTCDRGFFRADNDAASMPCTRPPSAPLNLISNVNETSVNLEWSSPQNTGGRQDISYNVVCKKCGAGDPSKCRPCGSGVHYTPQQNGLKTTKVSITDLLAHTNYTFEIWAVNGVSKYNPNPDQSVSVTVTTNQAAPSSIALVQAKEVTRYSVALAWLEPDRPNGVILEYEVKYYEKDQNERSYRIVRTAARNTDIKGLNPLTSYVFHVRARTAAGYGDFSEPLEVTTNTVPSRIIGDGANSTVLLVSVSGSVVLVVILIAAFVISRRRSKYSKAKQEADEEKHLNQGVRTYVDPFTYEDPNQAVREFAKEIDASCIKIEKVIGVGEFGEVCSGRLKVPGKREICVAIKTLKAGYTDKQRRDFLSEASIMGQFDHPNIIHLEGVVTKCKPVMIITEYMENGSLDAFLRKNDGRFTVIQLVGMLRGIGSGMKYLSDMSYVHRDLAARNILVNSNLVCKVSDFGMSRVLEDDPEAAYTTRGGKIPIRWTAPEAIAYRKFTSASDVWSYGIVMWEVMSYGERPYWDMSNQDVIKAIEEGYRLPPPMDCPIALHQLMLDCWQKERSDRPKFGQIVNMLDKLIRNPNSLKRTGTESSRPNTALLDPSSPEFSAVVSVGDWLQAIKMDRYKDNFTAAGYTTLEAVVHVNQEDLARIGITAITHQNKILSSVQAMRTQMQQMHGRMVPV
Description: as §1

IKKe/IKBKE = biological target: T40, IKKe/IKBKE (Homo sapiens, UniProt Q14164)
T40 construct: purchased Reaction Biology Corp
T40 sequence (Q14164 whole entry): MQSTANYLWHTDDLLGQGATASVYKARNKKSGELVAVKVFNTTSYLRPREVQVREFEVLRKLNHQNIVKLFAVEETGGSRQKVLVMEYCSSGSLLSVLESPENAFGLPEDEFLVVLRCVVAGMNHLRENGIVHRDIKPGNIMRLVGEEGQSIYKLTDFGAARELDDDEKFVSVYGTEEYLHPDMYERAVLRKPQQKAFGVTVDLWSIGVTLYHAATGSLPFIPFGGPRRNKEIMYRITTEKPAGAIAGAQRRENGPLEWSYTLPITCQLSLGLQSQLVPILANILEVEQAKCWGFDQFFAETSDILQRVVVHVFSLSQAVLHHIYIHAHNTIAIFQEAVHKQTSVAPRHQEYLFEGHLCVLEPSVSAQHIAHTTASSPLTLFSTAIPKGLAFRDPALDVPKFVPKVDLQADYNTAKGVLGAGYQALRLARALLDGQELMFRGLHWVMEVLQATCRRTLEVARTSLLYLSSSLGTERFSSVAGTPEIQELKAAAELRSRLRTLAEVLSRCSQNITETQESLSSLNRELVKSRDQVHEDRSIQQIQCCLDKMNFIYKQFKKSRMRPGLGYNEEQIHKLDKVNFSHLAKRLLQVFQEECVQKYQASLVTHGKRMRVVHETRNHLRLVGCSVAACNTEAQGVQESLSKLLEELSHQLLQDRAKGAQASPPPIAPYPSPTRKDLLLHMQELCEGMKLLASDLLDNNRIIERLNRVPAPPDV
Description: as §1

NLK = biological target: T41, NLK (Homo sapiens, UniProt Q9UBE8)
T41 construct: purchased Reaction Biology Corp
Description: as §1

PHKg2 = biological target: T42, PHKg2 (Homo sapiens, UniProt P15735)
T42 construct: purchased Reaction Biology Corp
Description: as §1

Q: Which results are given for `Cc1ccc(NC(=O)c2ccc(CN3CCN(C)CC3)c(C(F)(F)F)c2)cc1-c1cnc2sc(N)nc2c1` [6r]?
A: inhibition at 1 µM (FGFR3): 0%; inhibition at 1 µM (SIK1): 1.1%; inhibition at 1 µM (MARK3): 0%; inhibition at 1 µM (CDK14/cyclin Y (PFTK1)): 0%; inhibition at 1 µM (KDR/VEGFR2): 77.8%; inhibition at 1 µM (NEK2): 0%; inhibition at 1 µM (PKCb2): 12.7%; inhibition at 1 µM (AXL): 15.8%; inhibition at 1 µM (SGK3/SGKL): 0.8%; inhibition at 1 µM (GSK3b): 12.9%; inhibition at 1 µM (DYRK4): 0%; inhibition at 1 µM (PIM3): 3.4%; inhibition at 1 µM (CAMK1g): 20.8%; inhibition at 1 µM (CDK9/cyclin T2): 0%; inhibition at 1 µM (TTBK1): 9.9%; inhibition at 1 µM (NEK1): 2.6%; inhibition at 1 µM (HIPK2): 0.5%; inhibition at 1 µM (DYRK2): 0.6%; inhibition at 1 µM (FES/FPS): 39.7%; inhibition at 1 µM (CK1a1): 13.7%; inhibition at 1 µM (MARK1): 0%; inhibition at 1 µM (BLK): 84.8%; inhibition at 1 µM (PKG1a): 10.1%; inhibition at 1 µM (MLCK2/MYLK2): 4.8%; inhibition at 1 µM (RIPK3): 82.5%; inhibition at 1 µM (FLT3): 0%; inhibition at 1 µM (CLK3): 0%; inhibition at 1 µM (CDK4/cyclin D1): 4.7%; inhibition at 1 µM (FAK/PTK2): 7.8%; inhibition at 1 µM (NEK5): 0%; inhibition at 1 µM (MLK1/MAP3K9): 0%; inhibition at 1 µM (LYN): 97.5%; inhibition at 1 µM (MKK6): 6.6%; inhibition at 1 µM (RIPK2): 20.6%; inhibition at 1 µM (CDK6/cyclin D1): 9.1%; inhibition at 1 µM (SGK1): 11.6%; inhibition at 1 µM (LIMK2): 39.9%; inhibition at 1 µM (STK38L/NDR2): 6.5%; inhibition at 1 µM (EPHA4): 64.7%; inhibition at 1 µM (IKKe/IKBKE): 2%; inhibition at 1 µM (NLK): 7.3%; inhibition at 1 µM (PHKg2): 5%
